In ChEMBL document CHEMBL1129200, “Synthesis and cytotoxic activity of phenyl-hexahydropyrrolo[3,4-c]carbazoles” (Bioorg Med Chem Lett, 1996):

Legend:
A549 = test: Cytotoxic activity against A-549 cell lines.; assay type: functional, cell-based; conditions: Homo sapiens
HL-60 = test: Cytotoxic activity against HL-60(TB) leukemia cell lines.; assay type: functional; conditions: Homo sapiens
HOP-62 = test: Cytotoxic activity against HOP-62 non small cell lung cancer cell lines.; assay type: functional; conditions: Homo sapiens
HT-29 = test: Cytotoxic activity against HT-29 cell lines.; assay type: functional, cell-based; conditions: Homo sapiens
K562 = test: Cytotoxic activity against K-562 leukemia cell lines.; assay type: functional; conditions: Homo sapiens
SK-MEL-28 = test: Cytotoxic activity against MEL-28 cell lines.; assay type: functional, cell-based; conditions: Homo sapiens
MDA-N = test: Cytotoxic activity against MDA-N breast cancer cell lines.; assay type: functional; conditions: Homo sapiens
MDA-MB-435 = test: Cytotoxic activity against MDA-MB-435 breast cancer cell lines.; assay type: functional; conditions: Homo sapiens
OVCAR-4 = test: Cytotoxic activity against OVCAR-4 ovarian cancer cell lines.; assay type: functional; conditions: Homo sapiens
P388 = test: Cytotoxic activity against P-388 cell lines.; assay type: functional, cell-based; conditions: Mus musculus
BT-549 = test: Cytotoxic activity against […] breast cancer cell lines.; assay type: functional; conditions: Homo sapiens
RXF 393 = test: Cytotoxic activity against […] renal cancer cell lines.; assay type: functional; conditions: Homo sapiens
SK-MEL-2 = test: Cytotoxic activity against SK-MEL-2 melanoma cell lines.; assay type: functional; conditions: Homo sapiens
SNB-19 = test: Cytotoxic activity against SNB-19 CNS tumor cell lines.; assay type: functional; conditions: Homo sapiens
SNB-75 = test: Cytotoxic activity against SNB-75 CNS tumor cell line cell lines.; assay type: functional; conditions: Homo sapiens
T47D = test: Cytotoxic activity against T-47D breast cancer cell lines.; assay type: functional; conditions: Homo sapiens
U-251 = test: Cytotoxic activity against U251 CNS tumor cell line cell lines.; assay type: functional; conditions: Homo sapiens
UACC-62 = test: Cytotoxic activity against UACC-62 melanoma cell lines.; assay type: functional; conditions: Homo sapiens
HOP-92 = test: Cytotoxic activity against HOP-92 non small cell lung cancer cell lines.; assay type: functional; conditions: Homo sapiens
A498 = test: Cytotoxic activity against A 498 renal cancer cell lines.; assay type: functional; conditions: Homo sapiens

`COc1cc([C@@H]2Cc3[nH]c4ccccc4c3[C@@H]3C(=O)N(c4ccccc4)C(=O)[C@H]23)cc(OC)c1OC` showed an IC50 (A549) of 2.1 µM, a GI50 (HL-60) of 31.6 µM and a GI50 (HOP-62) of 16.2 µM. The IC50 (HT-29) was 2.1 µM, the GI50 (K562) was 31.6 µM and the IC50 (SK-MEL-28) was 2.1 µM. For the same molecule, the GI50 (MDA-N) was 30.2 µM, the GI50 (MDA-MB-435) was 21.9 µM and the GI50 (OVCAR-4) was 26.9 µM. It also gave an IC50 (P388) of 0.5 µM, a GI50 (BT-549) of 25.1 µM and a GI50 (RXF 393) of 20.4 µM. For the same molecule, the GI50 (SK-MEL-2) was 27.5 µM, the GI50 (SNB-19) was 25.7 µM and the GI50 (SNB-75) was 26.9 µM. The GI50 (T47D) was 25.1 µM, the GI50 (U-251) was 34.7 µM and the GI50 (UACC-62) was 24 µM. For the same molecule, the GI50 (HOP-92) was 13.2 µM and the GI50 (A498) was 33.1 µM.
`COc1cc([C@@H]2Cc3[nH]c4ccc(C)cc4c3[C@@H]3C(=O)N(c4ccccc4)C(=O)[C@H]23)cc(OC)c1OC` gave an IC50 (A549) of 20.1 µM, an IC50 (HT-29) of 20.1 µM and an IC50 (SK-MEL-28) of 20.1 µM. For the same molecule, the IC50 (P388) was 20.1 µM.
In the case of `COc1cc([C@@H]2Cc3[nH]c4ccc(Br)cc4c3[C@@H]3C(=O)N(c4ccccc4)C(=O)[C@H]23)cc(OC)c1OC`, the IC50 (A549) is reported as > 17.8 µM, the IC50 (HT-29) is reported as > 17.8 µM and the IC50 (SK-MEL-28) is reported as > 17.8 µM. For the same molecule, the IC50 (P388) was > 17.8 µM.
